In this assay the target is T1, Coagulation factor XII (Homo sapiens, UniProt P00748).
T1 sequence (P00748 whole entry): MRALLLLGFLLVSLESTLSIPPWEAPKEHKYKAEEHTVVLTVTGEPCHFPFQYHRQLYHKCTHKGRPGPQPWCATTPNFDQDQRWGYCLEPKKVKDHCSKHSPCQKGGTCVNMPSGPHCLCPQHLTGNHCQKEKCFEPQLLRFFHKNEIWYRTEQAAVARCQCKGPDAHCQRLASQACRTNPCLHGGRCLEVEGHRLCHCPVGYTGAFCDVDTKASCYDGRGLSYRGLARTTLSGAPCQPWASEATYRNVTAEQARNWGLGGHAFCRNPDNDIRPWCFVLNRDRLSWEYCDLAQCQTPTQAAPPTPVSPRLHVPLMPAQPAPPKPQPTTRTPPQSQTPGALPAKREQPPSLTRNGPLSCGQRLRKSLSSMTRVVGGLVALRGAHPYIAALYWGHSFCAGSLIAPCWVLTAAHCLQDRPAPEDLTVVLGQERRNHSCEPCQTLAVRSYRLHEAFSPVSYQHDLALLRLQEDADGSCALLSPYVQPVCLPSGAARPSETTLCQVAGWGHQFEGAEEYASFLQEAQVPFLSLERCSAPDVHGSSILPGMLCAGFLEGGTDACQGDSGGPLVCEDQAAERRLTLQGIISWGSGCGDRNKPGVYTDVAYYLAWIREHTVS
Description: Inhibition of human factor 12a using H-D-Pro-Phe-Arg-p-nitroanilide as chromogenic substrate assessed as liberation of p-nitroaniline measured every 5 mins for 60 min by multimode plate reader analysis.

Where a SMILES comes first, the peptide text is derived from it. Bridges are numbered along the chain shown (N, C = ends). [ ]: non-standard residue; d: D form. Phe(3-CF3) = N[C@@H](Cc1cccc(C(F)(F)F)c1)C(=O)O; Phe(4-CN) = N#Cc1ccc(C[C@H](N)C(=O)O)cc1; Phe(3-F) = N[C@@H](Cc1cccc(F)c1)C(=O)O; Phe(4-F) = N[C@@H](Cc1ccc(F)cc1)C(=O)O; Phe(2-F) = N[C@@H](Cc1ccccc1F)C(=O)O; hTyr = N[C@@H](CCc1ccc(O)cc1)C(=O)O; hArg = N=C(N)NCCCC[C@H](N)C(=O)O; 3Pal = N[C@@H](Cc1cccnc1)C(=O)O; 4Pal = N[C@@H](Cc1ccncc1)C(=O)O; Tic = O=C(O)[C@@H]1Cc2ccccc2CN1; Cha = N[C@@H](CC1CCCCC1)C(=O)O; Agb = N=C(N)NCC[C@H](N)C(=O)O; Orn = NCCC[C@H](N)C(=O)O

The IC50 is the concentration needed to halve the response being measured.

For the compound `CC(C)C[C@@H]1NC(=O)[C@H](Cc2ccc(O)cc2)NC(=O)CSC[C@@H](C(N)=O)NC(=O)CNC(=O)CNC(=O)[C@H](CCCNC(=N)N)NC(=O)[C@H](CC(=O)O)NC(=O)[C@H](CCCCN)NC(=O)[C@@H]2CCCN2C(=O)[C@H](CCCNC(=N)N)NC(=O)[C@H](CC2CCCCC2)NC(=O)[C@H](CCCNC(=N)N)NC1=O` ({CH2CO}-YLR[Cha]RPKDRGGC-NH2; thioether N-12), the IC50 amounted to 53 nM.

Regarding `CC(C)C[C@@H]1NC(=O)[C@H](Cc2ccc(O)cc2)NC(=O)CSC[C@@H](C(N)=O)NC(=O)CNC(=O)CNC(=O)[C@H](CCC(N)=O)NC(=O)[C@H](CC(N)=O)NC(=O)[C@H]([C@@H](C)O)NC(=O)[C@H](C)NC(=O)[C@H](CCCCN)NC(=O)[C@H](CC(C)C)NC(=O)[C@H](CCCNC(=N)N)NC1=O` ({CH2CO}-YLRLKATNQGGC-NH2; thioether N-12), the IC50 came to 2300 nM.

`CC(C)C[C@@H]1NC(=O)[C@H](Cc2ccc(F)cc2)NC(=O)CSC[C@@H](C(N)=O)NC(=O)CNC(=O)CNC(=O)[C@H](CCCNC(=N)N)NC(=O)[C@H](CC(=O)O)NC(=O)[C@H](CCCCN)NC(=O)[C@@H]2CCCN2C(=O)[C@H](CCCNC(=N)N)NC(=O)[C@H](Cc2ccccc2)NC(=O)[C@H](CCCNC(=N)N)NC1=O` ({CH2CO}-[Phe(4-F)]LRFRPKDRGGC-NH2; thioether N-12): the IC50 worked out at 470 nM.

`CC(C)C[C@@H]1NC(=O)[C@H](Cc2ccc(O)cc2)NC(=O)CSC[C@@H](C(N)=O)NC(=O)CNC(=O)CNC(=O)[C@H](CCCNC(=N)N)NC(=O)[C@H](CC(=O)O)NC(=O)[C@H](CCCCN)NC(=O)[C@@H]2CCCN2C(=O)[C@H](CCCNC(=N)N)NC(=O)[C@H](Cc2ccncc2)NC(=O)[C@H](CCCNC(=N)N)NC1=O` ({CH2CO}-YLR[4Pal]RPKDRGGC-NH2; thioether N-12): the concentration for half-maximal inhibition (IC50) was 120 nM.

With `CC(C)C[C@@H]1NC(=O)[C@H](Cc2ccc(O)cc2)NC(=O)CSC[C@@H](C(N)=O)NC(=O)CNC(=O)CNC(=O)[C@H](CCC(N)=O)NC(=O)[C@H](CC(N)=O)NC(=O)[C@H]([C@@H](C)O)NC(=O)[C@@H]2CCCN2C(=O)[C@H](CCCCN)NC(=O)[C@H](C)NC(=O)[C@H](CCCNC(=N)N)NC1=O` ({CH2CO}-YLRAKPTNQGGC-NH2; thioether N-12), the 50% inhibitory concentration (IC50) came to 13000 nM.

On to `CC(C)C[C@@H]1NC(=O)[C@H](CCCNC(=N)N)NC(=O)[C@H](CC(C)C)NC(=O)[C@H](Cc2ccc(O)cc2)NC(=O)CSC[C@@H](C(N)=O)NC(=O)CNC(=O)CNC(=O)[C@H](CCC(N)=O)NC(=O)[C@H](CC(N)=O)NC(=O)[C@H]([C@@H](C)O)NC(=O)[C@@H]2CCCN2C(=O)[C@H](C)NC1=O` ({CH2CO}-YLRLAPTNQGGC-NH2; thioether N-12), for which the concentration for half-maximal inhibition (IC50) was determined as 60000 nM.

Take `CC(C)C[C@@H]1NC(=O)[C@H](Cc2ccc(O)cc2)NC(=O)CSC[C@@H](C(N)=O)NC(=O)CNC(=O)CNC(=O)[C@H](CCCNC(=N)N)NC(=O)[C@H](CC(=O)O)NC(=O)[C@H](CCCCN)NC(=O)[C@@H]2CCCN2C(=O)[C@H](CCCCNC(=N)N)NC(=O)[C@H](Cc2ccccc2)NC(=O)[C@H](CCCNC(=N)N)NC1=O` ({CH2CO}-YLRF[hArg]PKDRGGC-NH2; thioether N-12): the IC50 came to 470 nM.

Turning to `CC(C)C[C@@H]1NC(=O)[C@H](CC2CCCCC2)NC(=O)CSC[C@@H](C(N)=O)NC(=O)CNC(=O)CNC(=O)[C@H](CCCNC(=N)N)NC(=O)[C@H](CC(=O)O)NC(=O)[C@H](CCCCN)NC(=O)[C@@H]2CCCN2C(=O)[C@H](CCCNC(=N)N)NC(=O)[C@H](Cc2ccccc2)NC(=O)[C@H](CCCNC(=N)N)NC1=O` ({CH2CO}-[Cha]LRFRPKDRGGC-NH2; thioether N-12), the 50% inhibitory concentration (IC50) was determined as 140000 nM.

`CC(C)C[C@@H]1NC(=O)[C@H](Cc2ccc(O)cc2)NC(=O)CSC[C@@H](C(N)=O)NC(=O)CNC(=O)CNC(=O)[C@H](CCCNC(=N)N)NC(=O)[C@H](CC(=O)O)NC(=O)[C@H](CCCCN)NC(=O)[C@@H]2CCCN2C(=O)[C@H](CCCNC(=N)N)NC(=O)[C@H](Cc2cccnc2)NC(=O)[C@H](CCCNC(=N)N)NC1=O` ({CH2CO}-YLR[3Pal]RPKDRGGC-NH2; thioether N-12): the IC50 came out at 170 nM.

For `CC(C)C[C@@H]1NC(=O)[C@H](Cc2ccc(O)cc2)NC(=O)CSC[C@@H](C(N)=O)NC(=O)CNC(=O)CNC(=O)[C@H](CCCNC(=N)N)NC(=O)[C@H](CC(=O)O)NC(=O)[C@H](CCCCN)NC(=O)[C@@H]2CCCN2C(=O)[C@H](CCCNC(=N)N)NC(=O)[C@H](Cc2ccccc2)NC(=O)[C@H](CCNC(=N)N)NC1=O` ({CH2CO}-YL[Agb]FRPKDRGGC-NH2; thioether N-12), the half-maximal inhibitory concentration (IC50) was 587 nM.

Consider `CC(C)C[C@@H]1NC(=O)[C@H](Cc2ccc(O)cc2)NC(=O)CSC[C@@H](C(N)=O)NC(=O)CNC(=O)CNC(=O)[C@H](CCCNC(=N)N)NC(=O)[C@H](CC(=O)O)NC(=O)[C@H](CCCCN)NC(=O)[C@@H]2CCCN2C(=O)[C@H](CCCN)NC(=O)[C@H](Cc2ccccc2)NC(=O)[C@H](CCCNC(=N)N)NC1=O` ({CH2CO}-YLRF[Orn]PKDRGGC-NH2; thioether N-12), for which the concentration for half-maximal inhibition (IC50) came out at 2100 nM.

For `CC(C)C[C@@H]1NC(=O)[C@H](C)NC(=O)[C@H](CC(C)C)NC(=O)[C@H](Cc2ccc(O)cc2)NC(=O)CSC[C@@H](C(N)=O)NC(=O)CNC(=O)CNC(=O)[C@H](CCC(N)=O)NC(=O)[C@H](CC(N)=O)NC(=O)[C@H]([C@@H](C)O)NC(=O)[C@@H]2CCCN2C(=O)[C@H](CCCCN)NC1=O` ({CH2CO}-YLALKPTNQGGC-NH2; thioether N-12), the IC50 is 850000 nM.

For `CC(C)C[C@@H]1NC(=O)[C@H](Cc2ccc(O)cc2)NC(=O)CSC[C@@H](C(N)=O)NC(=O)CNC(=O)CNC(=O)[C@H](CCCNC(=N)N)NC(=O)[C@H](CC(=O)O)NC(=O)[C@H](CCCCN)NC(=O)[C@@H]2CCCN2C(=O)[C@H](CCCNC(=N)N)NC(=O)[C@H](Cc2ccc(C#N)cc2)NC(=O)[C@H](CCCNC(=N)N)NC1=O` ({CH2CO}-YLR[Phe(4-CN)]RPKDRGGC-NH2; thioether N-12), the concentration for half-maximal inhibition (IC50) was found to be 90 nM.

Take `CC(C)C[C@@H]1NC(=O)[C@H](Cc2ccc(O)cc2)NC(=O)CSC[C@@H](C(N)=O)NC(=O)CNC(=O)CNC(=O)[C@H](CCCNC(=N)N)NC(=O)[C@H](CC(=O)O)NC(=O)[C@H](CCCCN)NC(=O)[C@@H]2CCCN2C(=O)[C@H](CCCNC(=N)N)NC(=O)[C@@H]2Cc3ccccc3CN2C(=O)[C@H](CCCNC(=N)N)NC1=O` ({CH2CO}-YLR[Tic]RPKDRGGC-NH2; thioether N-12): the IC50 is 22000 nM.

For the compound `CC(C)C[C@@H]1NC(=O)[C@H](CCc2ccc(O)cc2)NC(=O)CSC[C@@H](C(N)=O)NC(=O)CNC(=O)CNC(=O)[C@H](CCCNC(=N)N)NC(=O)[C@H](CC(=O)O)NC(=O)[C@H](CCCCN)NC(=O)[C@@H]2CCCN2C(=O)[C@H](CCCNC(=N)N)NC(=O)[C@H](Cc2ccccc2)NC(=O)[C@H](CCCNC(=N)N)NC1=O` ({CH2CO}-[hTyr]LRFRPKDRGGC-NH2; thioether N-12), the half-maximal inhibitory concentration (IC50) is 370000 nM.

For the compound `CC(C)C[C@@H]1NC(=O)[C@H](CCCNC(=N)N)NC(=O)[C@H](C)NC(=O)[C@H](Cc2ccc(O)cc2)NC(=O)CSC[C@@H](C(N)=O)NC(=O)CNC(=O)CNC(=O)[C@H](CCC(N)=O)NC(=O)[C@H](CC(N)=O)NC(=O)[C@H]([C@@H](C)O)NC(=O)[C@@H]2CCCN2C(=O)[C@H](CCCCN)NC1=O` ({CH2CO}-YARLKPTNQGGC-NH2; thioether N-12), the IC50 was 410000 nM.

`CC(C)C[C@@H]1NC(=O)[C@H](Cc2ccc(O)cc2)NC(=O)CSC[C@@H](C(N)=O)NC(=O)CNC(=O)CNC(=O)[C@H](CCCNC(=N)N)NC(=O)[C@H](CC(=O)O)NC(=O)[C@H](CCCCN)NC(=O)[C@@H]2CCCN2C(=O)[C@H](CCCNC(=N)N)NC(=O)[C@H](Cc2ccccc2F)NC(=O)[C@H](CCCNC(=N)N)NC1=O` ({CH2CO}-YLR[Phe(2-F)]RPKDRGGC-NH2; thioether N-12): the IC50 was determined as 53 nM.

As for `CC(C)C[C@@H]1NC(=O)[C@H](Cc2ccc(O)cc2)NC(=O)CSC[C@@H](C(N)=O)NC(=O)CNC(=O)CNC(=O)[C@H](CCCNC(=N)N)NC(=O)[C@H](CC(=O)O)NC(=O)[C@H](CCCCN)NC(=O)[C@@H]2CCCN2C(=O)[C@H](C)NC(=O)[C@H](Cc2ccccc2)NC(=O)[C@H](CCCNC(=N)N)NC1=O` ({CH2CO}-YLRFAPKDRGGC-NH2; thioether N-12), the concentration for half-maximal inhibition (IC50) was found to be 79000 nM.

With `CC(C)C[C@@H]1NC(=O)[C@H](Cc2cccc(F)c2)NC(=O)CSC[C@@H](C(N)=O)NC(=O)CNC(=O)CNC(=O)[C@H](CCCNC(=N)N)NC(=O)[C@H](CC(=O)O)NC(=O)[C@H](CCCCN)NC(=O)[C@@H]2CCCN2C(=O)[C@H](CCCNC(=N)N)NC(=O)[C@H](Cc2ccccc2)NC(=O)[C@H](CCCNC(=N)N)NC1=O` ({CH2CO}-[Phe(3-F)]LRFRPKDRGGC-NH2; thioether N-12), the IC50 amounted to 650 nM.

Regarding `CC(C)C[C@@H]1NC(=O)[C@H](Cc2ccc(O)cc2)NC(=O)CSC[C@@H](C(N)=O)NC(=O)CNC(=O)CNC(=O)[C@H](CCCNC(=N)N)NC(=O)[C@H](CC(=O)O)NC(=O)[C@H](CCCCN)NC(=O)[C@@H]2CCCN2C(=O)[C@H](CCCNC(=N)N)NC(=O)[C@H](Cc2cccc(C(F)(F)F)c2)NC(=O)[C@H](CCCNC(=N)N)NC1=O` ({CH2CO}-YLR[Phe(3-CF3)]RPKDRGGC-NH2; thioether N-12), the 50% inhibitory concentration (IC50) turned out to be 93 nM.

For the origin of these results see ChEMBL document CHEMBL5042477, “Potent Cyclic Peptide Inhibitors of FXIIa Discovered by mRNA Display with Genetic Code Reprogramming” (J Med Chem, 2021).
